Legend:
7-species = assay: Crystal Violet assay, average over the 7 mono-species biofilms; assay type: cell-based; details: enzyme combined w/nuclease; average over species tested
Description: (§1) Applicant's initial testing was carried out with combinations of two (2) enzymes rather than a single enzyme with a nuclease present in all enzyme combinations. DNase I, a specific commonly utilized DNA nuclease, was selected as a universal enzyme. Both DNase I and other DNA nucleases were compared and formulated to have equivalent activity and then used interchangeably in the research. Nuclease was tested against all seven (7) species at three (3) concentrations and then the most overall effective concentration was used in two (2) enzyme testing. Initial two (2) enzyme testing utilized traditional mono-species biofilms of the 7 species in Table 1. The nuclease was also always tested alone in all experiments allowing some determination of its contribution to the resulting antibiofilm activity. Non-nuclease enzymes were tested at 3 concentrations while the nuclease concentration was held constant. Anti-biofilm activity was measured using the Crystal Violet assay, an easy and ubiquitous assay used for measuring changes in biofilm magnitude in the biofilm research industry.
(§2) The results of the initial two enzyme combination testing using the Crystal Violet assay is given in Table 3 and are given as a percent of the untreated control Crystal Violet signal.

E. coli = assay: Crystal Violet assay, two-enzyme treatment of mono-species biofilm; assay type: cell-based, Escherechia coli O157:H7; details: enzyme combined w/nuclease; Crystal Violet assay vs untreated control
Description: as §1, §2

L. plantarum = assay: as above; assay type: cell-based, Lactobacillus plantarum; details: enzyme combined w/nuclease; Crystal Violet assay vs untreated control
Description: as §1, §2

[1] = test system: S. proteamaculans biofilms; assay: Crystal Violet assay, enzyme treatment of single species biofilm; assay type: cell-based, Serratia proteamaculans; details: enzyme combined w/nuclease; Crystal Violet assay vs untreated control
Description: as §1
Therefore, three-enzyme combinations were also tested against single species biofilms of this species.
as §2

S. enterica = assay: Crystal Violet assay, two-enzyme treatment of mono-species biofilm; assay type: cell-based, Salmonella enterica; details: enzyme combined w/nuclease; Crystal Violet assay vs untreated control
Description: as §1, §2

L. monocytogenes = assay: as above; assay type: cell-based, Listeria monocytogenes; details: enzyme combined w/nuclease; Crystal Violet assay vs untreated control
Description: as §1, §2

A. JohnsonII = assay: as above; assay type: cell-based, Acinetobacter johnsonii; details: enzyme combined w/nuclease; Crystal Violet assay vs untreated control
Description: as §1, §2

S. proteamaculans [2] = assay: Treatment Toxicity (ATP luminescence of cell free supernatant, BacTiterGlo), biofilm; assay type: cell-based, Serratia proteamaculans; details: for Treatment Toxicity % Ctr: Biofilm Lifestyle
Description: These enzyme combinations were tested for bacterial cell release from enzyme-treated biofilms. Post-enzyme exposure sample overlying solutions were collected and centrifuged to collect bacterial cells released by the enzyme treatment. The supernatants were removed, and the cell pellet resuspended in PBS and ATP luminescence was determined and compared to non-enzyme treated controls. Preferred enzyme pairs were expected to release more cells than untreated controls. Additionally, because maintaining extracted microbe viability was important, the ATP luminescence of the post-centrifugation cell free supernatants were also determined and compared to untreated controls. ATP is normally sequestered inside of cells so the presence of substantially more ATP in the cell free supernatant of enzyme treated biofilms indicates the enzyme treatment may have had toxic effects on the treated bacteria.
(§3) Treatment Toxicity: To measure cell toxicity the ATP luminescence of the post-centrifugation cell free supernatants were also determined using the BacTiterGlo Microbial Cell Viability Assay (Promega) and compared to untreated controls to give a percent control value shown. Values over 100% are viewed negatively as potential toxic effects of an enzyme treatment.
(§4) With both growth lifestyles a clear dose response curve is evident.

S. proteamaculans [3] = assay: Sanitizing agent treatment, single species biofilm controls in multi-species biofilm testing; assay type: cell-based, Serratia proteamaculans; details: 100 ug/ml BZAC
Description: Multi-species biofilms were screened by treatment with a sanitizing agent to identify species combinations that show heightened resistance. The multi-species biofilm with the most resistance to the sanitizer was used to screen three (3) enzyme combinations for anti-biofilm and bacterial release testing of the six (6) top performing two (2) enzyme combinations tested earlier. Non-nuclease enzymes were tested at two (2) different concentrations. Each three-enzyme combination was also compared to each of the two-enzyme combination core pair to try to identify synergy of the three-enzyme combination over the two-enzyme combination.
as §4

S. proteamaculans [4] = assay: Treatment Toxicity Assay (ATP luminescence), planktonic lifestyle; assay type: cell-based, Serratia proteamaculans
Description: as §3, §4

Substance | Biofilm Reduction Due to Enzyme Cocktail Treatment, 7-species average (7-species) [%] | Biofilm Reduction Due to Enzyme Cocktail Treatment, E. coli (E. coli) [%] | Biofilm Reduction Due to Enzyme Cocktail Treatment, L. plantarum (L. plantarum) [%] | Biofilm Reduction Due to Enzyme Cocktail Treatment, S. proteamaculens [1] [%] | Biofilm Reduction Due to Enzyme Cocktail Treatment, S. enterica (S. enterica) [%] | Biofilm Reduction Due to Enzyme Cocktail Treatment, L. monocytogenes (L. monocytogenes) [%] | Biofilm Reduction Due to Enzyme Cocktail Treatment, A. JohnsonII (A. JohnsonII) [%^] | Treatment Toxicity % Ctr (S. proteamaculans [2]; 1 μg/ml BZAC) [% Ctr] | Treatment Toxicity % Ctr (S. proteamaculans [2]; 10 μg/ml BZAC) [% Ctr] | Treatment Toxicity % Ctr (S. proteamaculans [2]; 100 μg/ml BZAC) [% Ctr] | cell-free ATP luminescence relative to untreated control biofilms (S. proteamaculans [2]; functionally active concentrations, a representative species) | biofilm reduction by sanitizer treatment (S. proteamaculans [3]) | Treatment Toxicity % Ctr (S. proteamaculans [4]; 1 μg/ml BZAC) [% Ctr] | Treatment Toxicity % Ctr (S. proteamaculans [4]; 10 μg/ml BZAC) [% Ctr] | Treatment Toxicity % Ctr (S. proteamaculans [4]; 100 μg/ml BZAC) [% Ctr]
Cellulase | 5 | 0 | 0 | 0 | 10 | 0 | 22.4 | – | – | – | – | – | – | – | –
Benzalkonium chloride [BZAC] | – | – | – | – | – | – | – | 1250.5 | 150.8 | 793.3 | over twelve-fold higher | consistently show biofilm reduction | 859.3 | 284.9 | 724.9

From patent US20260009065A1, “COMPOSITIONS FOR EXPOSING FILM-FORMING MICROBES AND METHODS FOR USE OF THE COMPOSITIONS” (Guild Associates Inc., priority 2022, published 2026)
